In patent publication US7053078B2, “Serine protease inhibitors” (Eli Lilly and Company, priority 2000, dated 2006) one finds melting point data, which are given here for four compounds.

The structures appear in SMILES notation.

In turn, `COc1ccc(C(=O)N[C@@H](CNC(=O)C2CCN(C3CCCC3)CC2)c2ccccc2)cc1` yielded a melting point of 253 to 257 °C.

The compound `COc1ccc(C(=O)N[C@@H](CNC(=O)C2CCN(C3CCN(C)CC3)CC2)c2ccccc2)cc1` yielded a melting point of 252 to 259 °C.

For the compound `CCN1CCC(C(=O)NC[C@H](NC(=O)c2ccc(OC)cc2)c2ccccc2)CC1`, the melting point lay in the range of 245 to 251 °C.

As to `COc1ccc(C(=O)N[C@@H](CNC(=O)C2CCN(C3CCCCC3)CC2)c2ccccc2)cc1`, the melting point was in the range of 239 to 243 °C.
